Tests used:
SORHA = assay: Greenhouse test, pre-emergence herbicidal action; format: in vivo, johnsongrass
Excerpt: (§1) For the pre-emergence treatment, the test plants were sown is pots 1-2 days later, i.e. prior to germination, the pots were sprayed with the finely distributed herbicidal compositions, which had been suspended in water.
(§2) The respective components A and B and/or C were formulated as 10% by weight strength emulsion concentrate and introduced to the spray liquor with the amount of solvent system used for applying the active compound. In the examples, the solvent used was water.
(§3) The test period extended over 21 days. During this time, the plants were tended, and their response to the treatments with active compound was evaluated.
(§4) The evaluation for the damage caused by the chemical compositions was carried out using a scale from 0 to 100%, compared to the untreated control plants. Here, 0 means no damage and 100 means complete destruction of the plants.
(§5) In the examples below, the value E which is to be expected if the activity of the individual active compounds is just additive was calculated using the method of S. R. Colby (1967) “Calculating synergistic and antagonistic responses of herbicide combinations”, Weeds 15, p. 22 ff. E=X+Y—(X·Y/100) where • X=effect in percent using active compound A at an application rate a; • Y=effect in percent using active compound B at an application rate b; • E=expected effect (in %) of A+B at application rates a+b.
(§6) The plants used in the greenhouse experiments were of the following species: […]

ECHCG [1] = assay: Greenhouse test, pre-emergence herbicidal action; format: in vivo, barnyardgrass
Excerpt: as §1, §2, §3, §4, §5, §6

CHEAL = assay: Greenhouse test, pre-emergence herbicidal action; format: in vivo, lambsquarters
Excerpt: as §1, §2, §3, §4, §5, §6

SETFA = assay: Greenhouse test, post-emergence herbicidal action; format: in vivo, giant foxtail; settings: 21 days
Excerpt: (§7) For the post-emergence treatment, the test plants were first grown to a height of 3 to 20 cm, depending on the plant habit, and only then treated. Here, the herbicidal compositions were suspended or emulsified in water as distribution medium and sprayed using finely distributing nozzles.
as §2, §3, §4, §5, §6

BIDPI [2] = assay: Greenhouse test, post-emergence herbicidal action; format: in vivo, hairy beggarticks
Excerpt: as §7, §2, §3, §4, §5, §6

MATIN = assay: Greenhouse test, post-emergence herbicidal action; format: in vivo, false chamomille
Excerpt: as §7, §2, §3, §4, §5, §6

COMBE = assay: Greenhouse test, post-emergence herbicidal action; format: in vivo, tropical spiderwort; settings: 21 days
Excerpt: as §7, §2, §3, §4, §5, §6

BRAPL = assay: Greenhouse test, post-emergence herbicidal action; format: in vivo, alexandergrass
Excerpt: as §7, §2, §3, §4, §5, §6

POLPE = assay: Greenhouse test, post-emergence herbicidal action; format: in vivo, ladysthumb
Excerpt: as §7, §2, §3, §4, §5, §6

POAAN = assay: Greenhouse test, post-emergence herbicidal action; format: in vivo, annual bluegrass
Excerpt: as §7, §2, §3, §4, §5, §6

THLAR = assay: Greenhouse test, pre-emergence herbicidal action; format: in vivo, fanweed
Excerpt: as §1, §2, §3, §4, §5, §6

AVEFA = assay: Greenhouse test, post-emergence herbicidal action; format: in vivo, wild oat
Excerpt: as §7, §2, §3, §4, §5, §6

ABUTH [3] = assay: Greenhouse test, post-emergence herbicidal action; format: in vivo, velvet leaf; settings: 21 days
Excerpt: as §7, §2, §3, §4, §5, §6

VERSS = assay: Greenhouse test, post-emergence herbicidal action; format: in vivo, speadwell
Excerpt: as §7, §2, §3, §4, §5, §6

ABUTH [4] = assay: Greenhouse test, pre-emergence herbicidal action; format: in vivo, velvet leaf
Excerpt: as §1, §2, §3, §4, §5, §6

GALAP = assay: Greenhouse test, post-emergence herbicidal action; format: in vivo, catchweed bedstraw; settings: 21 days
Excerpt: as §7, §2, §3, §4, §5, §6

crop plants = assay: Safener action, pre-emergence, damage to crop plants; format: in vivo; settings: 21 days
Excerpt: as §1, §2, §4
As in the example above, test plants were grown, treated with the mixture according to the invention by the Pre-emergence method and, after a test period of 21 days, evaluated using a scale from 0 to 100% damage. The test plants used were crop plants.
A safener action is present if the damage to the crop plant caused by using a mixture according to the invention which comprises a safener C) is less than the damage caused when active compound A or active compounds A and B are used without safener.

ECHCG [5] = assay: Greenhouse test, post-emergence herbicidal action; format: in vivo, barnyardgrass
Excerpt: as §7, §2, §3, §4, §5, §6

SETVI = assay: Greenhouse test, post-emergence herbicidal action; format: in vivo, green foxtail
Excerpt: as §7, §2, §3, §4, §5, §6

BIDPI [6] = assay: Greenhouse test, pre-emergence herbicidal action; format: in vivo, hairy beggarticks
Excerpt: as §1, §2, §3, §4, §5, §6

[7] = application rate 62.5 g/ha (Example 23)
[8] = application rate 1.95 g/ha, 21 days
[9] = application rate 3.91 g/ha, 21 days
[10] = application rate 1.95 g/ha (Example 28)
[11] = application rate 3.91 g/ha (Example 28)
[12] = application rate 0.98 g/ha (Example 24)
[13] = application rate 1.95 g/ha (Example 24)

`COC[C@H](C)N(C(=O)CCl)c1c(C)csc1C` [dimethenamide-P] was tested, and the “Herbicidal action against SORHA, Found” value (SORHA; application rate 62.5 g/ha) was 50%, the “Herbicidal action against ECHCG, Found” value (ECHCG [1]; application rate 62.5 g/ha (Example 22)) was 85% and the “Herbicidal action against ECHCG, Found” value (ECHCG [1]; [7]) was 85%. The “Herbicidal action against CHEAL, Found” value (CHEAL; application rate 62.5 g/ha) was 10%.

`CCc1nc2c(Cl)cc(F)c(-c3nn(C)c(OC(F)F)c3Cl)c2o1` [I.9] was tested, and the “Herbicidal action against SETFA, Found” value (SETFA; application rate 1.95 g/ha) was 45%, the “Herbicidal action against BIDPI, Found” value (BIDPI [2]; [8]) was 0% and the “Herbicidal action against BIDPI, Found” value (BIDPI [2]; [9]) was 40%. For the same compound, the “Herbicidal action against MATIN, Found” value (MATIN; application rate 1.95 g/ha) was 20%, the “Herbicidal action against MATIN, Found” value (MATIN; application rate 3.91 g/ha) was 20% and the “Herbicidal action against ECHCG, Found” value (ECHCG [1]; application rate 7.81 g/ha) was 10%. The “Herbicidal action against ECHCG, Found” value (ECHCG [1]; application rate 15.63 g/ha) was 35%, the “Herbicidal action against COMBE, Found” value (COMBE; application rate 0.98 g/ha) was 10% and the “Herbicidal action against COMBE, Found” value (COMBE; application rate 1.95 g/ha) was 10%. For the same compound, the “Herbicidal action against BRAPL, Found” value (BRAPL; application rate 3.91 g/ha (Example 17)) was 65%, the “Herbicidal action against BRAPL, Found” value (BRAPL; application rate 7.81 g/ha (Example 17)) was 85% and the “Herbicidal action against POLPE, Found” value (POLPE; application rate 0.49 g/ha, 21 days) was 5%. The “Herbicidal action against POLPE, Found” value (POLPE; application rate 0.98 g/ha, 21 days) was 10%, the “Herbicidal action against POLPE, Found” value (POLPE; [8]) was 50% and the “Herbicidal action against CHEAL, Found” value (CHEAL; application rate 7.81 g/ha) was 75%. For the same compound, the “Herbicidal action against CHEAL, Found” value (CHEAL; application rate 15.63 g/ha) was 75%, the “Herbicidal action against POAAN, Found” value (POAAN; application rate 1.95 g/ha) was 10% and the “Herbicidal action against POAAN, Found” value (POAAN; application rate 3.91 g/ha) was 10%. For the same compound, the “Herbicidal action against THLAR, Found” value (THLAR; application rate 15.63 g/ha) was 80%, the “Herbicidal action against THLAR, Found” value (THLAR; application rate 31.25 g/ha) was 80% and the “Herbicidal action against AVEFA, Found” value (AVEFA; application rate 1.95 g/ha (Example 15)) was 10%. For the same compound, the “Herbicidal action against AVEFA, Found” value (AVEFA; [8]) was 10%, the “Herbicidal action against AVEFA, Found” value (AVEFA; application rate 3.91 g/ha (Example 15)) was 20% and the “Herbicidal action against ABUTH, Found” value (ABUTH [3]; application rate 0.49 g/ha) was 0%. The “Herbicidal action against ABUTH, Found” value (ABUTH [3]; application rate 0.98 g/ha) was 70%.

In the case of `CCc1nc2c(Cl)cc(Cl)c(-c3nn(C)c(OC(F)F)c3Br)c2o1` [I.12], the “Herbicidal action against SETFA, Found” value (SETFA; application rate 1.95 g/ha) is reported as 50%, the “Herbicidal action against SETFA, Found” value (SETFA; application rate 3.91 g/ha) is reported as 65% and the “Herbicidal action against VERSS, Found” value (VERSS; application rate 0.49 g/ha) is reported as 0%. For the same compound, the “Herbicidal action against VERSS, Found” value (VERSS; application rate 0.98 g/ha) was 50%, the “Herbicidal action against ABUTH, Found” value (ABUTH [4]; application rate 62.5 g/ha) was 60% and the “Herbicidal action against ABUTH, Found” value (ABUTH [4]; application rate 125 g/ha) was 60%. For the same compound, the “Herbicidal action against SORHA, Found” value (SORHA; application rate 31.25 g/ha) was 30%, the “Herbicidal action against SORHA, Found” value (SORHA; application rate 62.5 g/ha) was 40% and the “Herbicidal action against BIDPI, Found” value (BIDPI [2]; application rate 1.95 g/ha) was 65%. For the same compound, the “Herbicidal action against BIDPI, Found” value (BIDPI [2]; application rate 3.91 g/ha) was 65%, the “Herbicidal action against ECHCG, Found” value (ECHCG [1]; application rate 31.25 g/ha) was 0% and the “Herbicidal action against ECHCG, Found” value (ECHCG [1]; [7]) was 0%. The “Herbicidal action against GALAP, Found” value (GALAP; application rate 0.49 g/ha) was 15%, the “Herbicidal action against GALAP, Found” value (GALAP; application rate 0.98 g/ha) was 15% and the “Herbicidal action against BRAPL, Found” value (BRAPL; [10]) was 50%. The “Herbicidal action against BRAPL, Found” value (BRAPL; application rate 3.91 g/ha (Example 18)) was 60%, the “Herbicidal action against BRAPL, Found” value (BRAPL; [11]) was 50% and the “Herbicidal action against BRAPL, Found” value (BRAPL; application rate 7.81 g/ha (Example 18)) was 75%. The “Damage to the crop plant corn (ZEAMX), cultivar Magister” value (crop plants; application rate 62.5 g/ha) was 38%, the “Damage to the crop plant corn (ZEAMX), cultivar P3751” value (crop plants; application rate 62.5 g/ha) was 28% and the “Damage to the crop plant corn (ZEAMX), cultivar Magister” value (crop plants; application rate 125 g/ha) was 35%. For the same compound, the “Damage to the crop plant corn (ZEAMX), cultivar P3751” value (crop plants; application rate 125 g/ha) was 35%, the “Herbicidal action against ECHCG, Found” value (ECHCG [5]; application rate 0.49 g/ha) was 0% and the “Herbicidal action against ECHCG, Found” value (ECHCG [5]; application rate 0.98 g/ha) was 0%. For the same compound, the “Herbicidal action against ECHCG, Found” value (ECHCG [5]; [12]) was 0%, the “Herbicidal action against ECHCG, Found” value (ECHCG [5]; [13]) was 0% and the “Herbicidal action against ECHCG, Found” value (ECHCG [5]; [8]) was 50%. The “Herbicidal action against ECHCG, Found” value (ECHCG [5]; [9]) was 50%, the “Herbicidal action against POLPE, Found” value (POLPE; application rate 0.49 g/ha) was 15% and the “Herbicidal action against POLPE, Found” value (POLPE; application rate 0.98 g/ha) was 15%. The “Herbicidal action against POLPE, Found” value (POLPE; [12]) was 15%, the “Herbicidal action against POLPE, Found” value (POLPE; [13]) was 60% and the “Herbicidal action against POLPE, Found” value (POLPE; [8]) was 60%. For the same compound, the “Herbicidal action against POLPE, Found” value (POLPE; [9]) was 65%, the “Herbicidal action against SETVI, Found” value (SETVI; application rate 0.98 g/ha) was 40% and the “Herbicidal action against SETVI, Found” value (SETVI; application rate 1.95 g/ha) was 50%. The “Herbicidal action against AVEFA, Found” value (AVEFA; application rate 1.95 g/ha) was 40%, the “Herbicidal action against AVEFA, Found” value (AVEFA; application rate 1.95 g/ha (Example 16)) was 20% and the “Herbicidal action against AVEFA, Found” value (AVEFA; [10]) was 20%. The “Herbicidal action against AVEFA, Found” value (AVEFA; [8]) was 20%, the “Herbicidal action against AVEFA, Found” value (AVEFA; application rate 3.91 g/ha) was 40% and the “Herbicidal action against AVEFA, Found” value (AVEFA; application rate 3.91 g/ha (Example 16)) was 30%. The “Herbicidal action against AVEFA, Found” value (AVEFA; [11]) was 20%, the “Herbicidal action against AVEFA, Found” value (AVEFA; [9]) was 30% and the “Herbicidal action against BIDPI, Found” value (BIDPI [6]; application rate 62.5 g/ha) was 30%. For the same compound, the “Herbicidal action against BIDPI, Found” value (BIDPI [6]; application rate 125 g/ha) was 30%.

From patent US20050037923A1, “Herbicidal mixture based on 7-pyrazolybenzoxazoles” (BASF Aktiengesellschaft, priority 2001, published 2005)
